Assay results from US12435062B2, “Amide compounds and uses thereof” (HUTCHISON MEDIPHARMA LIMITED, priority 2020, dated 2025).
pIC50: −log10 of the molar value.

Experiments:
[1] = target: Recombinant human CSF1R kinase (Homo sapiens (Human), UniProt P07333); type: biochemical; conditions: Z-LYTE Tyr 1 peptide substrate
Description: Measurement of CSF1R Kinase Activity at Molecular Level
1. Reagents and materials:
• Z-LYTE™ Tyr 1 peptide substrate: Invitrogen, PV3190; • 5× kinase buffer: Invitrogen, PV3189; • 10 mM ATP: Invitrogen, PV3227; • Development reagent B: Invitrogen, PV3295; • Development buffer: Invitrogen, P3127; • Stopping solution: Invitrogen, P3094; • Recombinant human CSF1R kinase: Invitrogen, PR4598A; • 384 well plate, black: Corning, 3575; Envision: Perkin Elmer. 2. Preparation of reaction solutions
1) 1.33× kinase buffer: 5× kinase buffer was diluted to a 1.33× kinase buffer with ddH2O.
2) Dilution of a 4× test compound: The test compound was diluted in gradient to 4-fold the reaction concentration and the concentration of DMSO was kept at 8%. The final concentration of the compound in reaction was: 1, 0.33, 0.11, 0.037, 0.012, 0.004, 0.0014, 0.00046 μM, and the final concentration of DMSO was 2%.
3) A mixture of kinase/peptide substrate: In 1.33× kinase buffer, the kinase and Z-LYTE™ Tyr 1 peptide substrate were diluted to 0.12 μg/mL and 4 μM, respectively, to prepare a mixture of kinase/peptide substrate. The mixture was mixed gently with a pipette.
4) A phosphorylated peptide substrate solution (PP solution): 0.4 μL of Z-LYTE™ Tyr1 phosphorylated peptide substrate was added to 99.6 μL of 1.33× kinase buffer.
5) ATP solution: 10 mM of ATP was diluted to 760 μM with 1.33× kinase buffer to prepare ATP solution.
6) Development solution: Development reagent B was diluted with Development buffer at a ratio of 1:200.
1) Kinase reaction (10 μL system)
2.5 μL of 4× test compound was added to each reaction well of the 384 plate, and the corresponding volume of 8% DMSO was added to the control well. The plate was placed on ice. 5 μL of a mixture of kinase/peptide substrate, 2.5 μL of kinase buffer and ATP solution were successively added to each well. Three control groups were set up: Group C1 contains only kinase buffer, group C2 contains the mixture of kinase/peptide substrate, kinase buffer and ATP, and group C3 contains 5 μL of PP solution. After adding the reaction components, the 384-well plate was sealed and incubated at 25-30° C. for 1 h in dark.
5 μL of Development solution was added to each well, sealed and incubated at 25-30° C. for another 1 h in dark.
3) Reaction stopping and plate reading
5 μL of stopping solution was added to each well. The Coumarin value (excitation at 400 nm, emission at 445 nm) and Fluorescein value (excitation at 400 nm, emission at 520 nm) were measured, respectively.
ER (emission ratio): Coumarin emission read-out (445 nm)/Fluorescein emission read-out (520 nm); • C3 445 nm: 100% phosphorylated Coumarin emission read-out; • C3 520 nm: 100% phosphorylated Fluorescein emission read-out; • C1 445 nm: 0% phosphorylated Coumarin emission read-out; • C1 520 nm: 0% phosphorylated Fluorescein emission read-out. Inhibition rate % (IR)=[1−% phosphorylation ratetest sample/100% phosphorylation ratecontrol]×100%
% phosphorylation ratetest sample: phosphorylation rate of the test compound; • 100% phosphorylation ratecontrol: phosphorylation rate of C3 control group.
5. IC50 values: calculated by using software XL-Fit™ (version 5.3) supplied by ID Business Solutions (Guildford, UK), which is an additional software to Microsoft Excel.

[2] = tested on: Ba/F3^BCR-FMS-11 cells; assay: Cell proliferation experiment (Ba/F3^BCR-FMS-11, cckit-8); type: cell-based, mouse; conditions: Mus musculus, Ba/F3^BCR-FMS-11 cell proliferation
Description: Cell Proliferation Experiment
Ba/F3^BCR-FMS-11, mouse primary B lymphocytes stably expressing the BCR-FMS fusion gene. The cells were cultured in an RPMI 1640 medium containing 10% FBS.
(§1) 2. Reagents and instruments
• cckit-8 kit: Dojindo, 9 CK04; • Envision: Perkin Elmer; • Cell culture plate: Facol, 9353027. 3. Experimental steps
The BCR-FMS fusion gene was transfected into Ba/F3 cells, and the cell line Ba/F3^BCR-FMS-11 that stably expresses BCR-FMS and grows depending on CSF-1R was screened. Ba/F3^BCR-FMS-11 cell proliferation experiments is completed by using the Cell Counting kit cckit-8 in a 96-well plate. In a 96-well plate, 5000/well of Ba/F3^BCR-FMS-11 cells were inoculated at 100 μL/well. […] 10 μL of the compound dilutions with the above 8 concentrations were added to the culture cell wells. The culture was incubated in a 37° C. and 5% CO2 cell incubator for 72 hours. 10 μL of Cell Counting kit cckit-8 detection reagent was added to each well, and incubated at 37° C. and 5% CO2 in a cell incubator for another 1 h. The optical density absorption value at 450 nm of each well was detected by using Perkin Elmer Envision instrument.
wherein • Drug-treated well read-out: indicating the optical density signal of a cell well with the test compound treatment. • Cell well read-out: indicating the optical density signal of a cell well not treated with the test compound (only 0.5% DMSO). • Background read-out: indicating the optical density signal of a well with the cell medium. 5. Calculation of IC50: obtained by using XL-Fit 5.3 software. 6. Test results

[3] = target: CSF1R phosphorylation in THP-1 cells (Homo sapiens (Human), UniProt P07333); assay: Detection of CSF1R phosphorylation activity at cell level (THP-1, M-CSF stimulated, ELISA); type: cell-based; conditions: p-CSF1R ELISA, compound 60 min, 300 ng/mL M-CSF 1 min
Description: Detection of CSF1R Phosphorylation Activity at Cell Level
THP-1 (ATCC), human acute monocytic leukemia cells. The cells were cultured in an RPMI 1640 medium containing 10% FBS.
as §1
• Human phosphorylation-CSF1R ELISA kit: R&D, #DYC3268-2; • RPMI 1640 culture solution: GIBCO, 910491; • Human M-CSF recombinant cytokine: R&D, 9216-MC-500; • Cell lysis buffer: Cell Signal, 99803S; • 1×PBS buffer (1 L): 8.0 g of NaCl, 0.2 g of KCl, 3.58 g of Na2HPO4-12H2O, 0.24 g of KH2PO4 were dissolved in 1 L of dd H2O, and the pH was adjusted to 7.4; • Blocking solution: PBS buffer containing 1% BSA; • PBST washing liquid: PBS buffer containing 0.05% Tween-20; • Chromogenic substrate: R&D, #DY999; • 2N H2SO4; • Microwell plate reader: Labsystems Multiskan K3: Thermo; Envision: Perkin Elmer; • ELISA plate: Corning, #9018; • Cell culture plate: Facol, #353027. 3. Treatment of cells and preparation of lysis buffer
THP-1 cells were resuspended in RPMI-1640 culture solution containing 2% FBS, and the culture was added to a 96-well plate at a density of 5×10^4/well, 50 μL/well, and cultured in a cell incubator at 5% CO2 and 37° C. overnight; The test compound was diluted with a serum-free RPMI-1640 medium to 3, 1.1, 0.37, 0.12, 0.04, 0.014, 0.005 and 0.002 μM, and the concentration of DMSO was 5%. 5 μL of the diluted compound was added to the 50 μL cell culture system, the culture was cultured in a 5% CO2, 37° C. cell incubator for 60 min, 300 ng/mL of M-CSF was added to the cells, and the mixture was stimulated in the 37° C. cell incubator for 1 min, added 50 μL of cell lysis buffer, and stored in a refrigerator at −80° C.
100 μL/well of the p-CSF1R capture antibody diluted to 0.8 μg/mL with PBS was added to the ELISA plate, and the plate was coated on a shaker at room temperature overnight. The culture was washed with PBST, and then added blocking solution and incubated at room temperature for 2 h. The culture was washed with PBST, added 90 μL of cell lysis buffer, and incubated on a shaker at 25° C. for 2 h. The plate was washed with PBST three times, added 100 μL of anti-p-tyrosine-HRP detection antibody diluted with 0.1% PBS-BSA diluent, and incubated on a shaker at 25° C. for 2 h. The plate was washed with PBST washing liquid, added 100 μL of chromogenic substrate and incubated at room temperature for 10-20 min. The reaction was stopped by adding 50 μL of 2N H2SO4. The optical density signal (450/570 nm) of each well was detected in Labsystems Multiskan K3 or Envision.
wherein • Drug-treated well read-out: indicating the optical density signal of a cell well with the test compound treatment. • Background read-out: indicating the optical density signal of a well without cells but with cell lysis buffer. • Cell well read-out: indicating the optical density signal of a cell well not treated with the compound. 6. Calculation of IC50: obtained by using XL-Fit 5.3 software. 7. Test results

Sequence of CSF1R phosphorylation in THP-1 cells (P07333 20-972): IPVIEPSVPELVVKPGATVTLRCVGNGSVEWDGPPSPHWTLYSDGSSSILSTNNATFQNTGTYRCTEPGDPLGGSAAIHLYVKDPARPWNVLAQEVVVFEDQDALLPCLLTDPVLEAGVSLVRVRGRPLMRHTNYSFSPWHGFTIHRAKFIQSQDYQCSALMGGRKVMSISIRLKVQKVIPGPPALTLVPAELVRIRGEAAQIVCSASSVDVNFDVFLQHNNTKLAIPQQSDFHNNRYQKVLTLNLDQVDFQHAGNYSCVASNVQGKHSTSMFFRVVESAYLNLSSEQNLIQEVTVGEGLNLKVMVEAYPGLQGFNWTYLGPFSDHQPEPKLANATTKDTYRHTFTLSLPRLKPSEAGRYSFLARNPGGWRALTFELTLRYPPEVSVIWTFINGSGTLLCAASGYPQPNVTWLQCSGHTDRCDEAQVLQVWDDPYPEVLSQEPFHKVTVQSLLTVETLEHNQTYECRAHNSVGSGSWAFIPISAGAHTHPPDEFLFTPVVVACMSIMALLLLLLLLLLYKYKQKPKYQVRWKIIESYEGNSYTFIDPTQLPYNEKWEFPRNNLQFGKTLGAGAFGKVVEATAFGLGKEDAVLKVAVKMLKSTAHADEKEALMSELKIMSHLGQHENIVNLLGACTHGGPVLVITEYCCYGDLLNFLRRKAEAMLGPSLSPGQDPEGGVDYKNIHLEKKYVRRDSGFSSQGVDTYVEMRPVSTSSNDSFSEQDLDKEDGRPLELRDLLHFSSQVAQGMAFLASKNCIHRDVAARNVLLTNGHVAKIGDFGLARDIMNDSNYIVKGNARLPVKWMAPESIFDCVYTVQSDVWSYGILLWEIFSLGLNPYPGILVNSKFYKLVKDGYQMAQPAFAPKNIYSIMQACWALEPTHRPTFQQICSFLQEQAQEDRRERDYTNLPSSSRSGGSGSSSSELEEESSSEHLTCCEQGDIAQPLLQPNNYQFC
Sequence of Recombinant human CSF1R kinase (P07333 20-972): as above

| SMILES | pIC50 [1] | pIC50 ([2]; 72 h) | further results |
| --- | --- | --- | --- |
| CC(C)n1c(N(C)C)ccc(C(=O)Nc2ccc(Oc3ccnc(-c4cnn(C)c4)c3)cn2)c1=O [Compound 1, 6-(dimethylamino)-1-isopropyl-N-(5-((2-(1-methyl-1H-pyrazol-4-yl)pyridin-4-yl)oxy)pyridin-2-yl)-2-oxo-1,2-dihydropyridine-3-carboxamide] | 6.66 |  |  |
| CN(C)c1ccc(C(=O)Nc2ccc(Oc3ccnc(-c4cnn(C)c4)c3)cn2)c(=O)n1C [Compound 2, 6-(dimethylamino)-1-methyl-N-(5-((2-(1-methyl-1H-pyrazol-4-yl)pyridin-4-yl)oxy)pyridin-2-yl)-2-oxo-1,2-dihydropyridine-3-carboxamide] |  |  | pIC50 ([2]; 72 hours): 7.96 |
| COc1ccc(C(=O)Nc2ccc(Oc3ccnc(-c4cnn(C)c4)c3)cn2)c(=O)n1C [Compound 3, 6-methoxy-1-methyl-N-(5-((2-(1-methyl-1H-pyrazol-4-yl)pyridin-4-yl)oxy)pyridin-2-yl)-2-oxo-1,2-dihydropyridine-3-carboxamide] | 8.30 | 7.92 | pIC50 [3]: 7.20 |
| Cn1cc(Nc2cc(Oc3cnc(NC(=O)c4cccn(C)c4=O)c(F)c3)ccn2)cn1 [Compound 4, N-(3-fluoro-5-((2-((1-methyl-1H-pyrazol-4-yl)amino)pyridin-4-yl)oxy)pyridin-2-yl)-1-methyl-2-oxo-1,2-dihydropyridine-3-carboxamide] | 7.18 | 7.22 | pIC50 [3]: 7.55 |
| Cc1ncc(C(=O)Nc2ccc(Oc3cc(-c4cnn(C)c4)ncn3)cn2)c(=O)n1C [Compound 5, 1,2-dimethyl-N-(5-((6-(1-methyl-1H-pyrazol-4-yl)pyrimidin-4-yl)oxy)pyridin-2-yl)-6-oxo-1,6-dihydropyrimidine-5-carboxamide] | 7.66 | 7.33 | pIC50 [3]: 7.96 |
| CC(C)n1cccc(C(=O)Nc2ccc(Oc3ccnc(-c4cnn(C)c4)n3)cn2)c1=O [Compound 6, 1-isopropyl-N-(5-((2-(1-methyl-1H-pyrazol-4-yl)pyrimidin-4-yl)oxy)pyridin-2-yl)-2-oxo-1,2-dihydropyridine-3-carboxamide] | 8.15 | 7.82 | pIC50 [3]: 7.68 |
| Cc1ncc(C(=O)Nc2ccc(Oc3ccnc(-c4cnn(C)c4)n3)cn2)c(=O)n1C [Compound 7, 1,2-dimethyl-N-(5-((2-(1-methyl-1H-pyrazol-4-yl)pyrimidin-4-yl)oxy)pyridin-2-yl)-6-oxo-1,6-dihydropyrimidine-5-carboxamide] | 7.17 | 7.41 | pIC50 [3]: 7.60 |
| Cc1ncc(C(=O)Nc2ccc(Oc3ccnc(-c4cnn(CCN(C)C)c4)c3)cn2)c(=O)n1C [Compound 14] |  | 7.36 |  |
| Cc1cc(Oc2ccnc(-c3cnn(C)c3)c2)ccc1NC(=O)c1cccn(C(C)C)c1=O [Compound 19] | 6.56 |  |  |
| Cn1cc(-c2cc(Oc3ccc(NC(=O)c4cnc5ccccn5c4=O)nc3)ccn2)cn1 [Compound 26] |  | 8.00 |  |
| Cn1cccc(C(=O)Nc2ccc(Oc3ccnc(-n4cncn4)c3)cn2)c1=O [Compound 29] | 6.76 |  |  |
| Cc1ncc(C(=O)Nc2ccc(Oc3ccnc(-c4cncn4C)c3)cn2)c(=O)n1C [Compound 31] | 6.16 |  |  |
| Cc1cc(Nc2cc(Oc3ccc(NC(=O)c4cnc(C)n(C)c4=O)nc3)ccn2)ccn1 [Compound 35] | 6.95 |  |  |
| Cn1cccc(C(=O)Nc2ccc(Oc3ccnc(-n4cccn4)c3)cn2)c1=O [Compound 37] | 6.77 |  |  |
| Cn1cc(-c2cc(Oc3ccc(NC(=O)c4cn(C)c(=O)n(C)c4=O)nc3)ccn2)cn1 [Compound 40] |  | 7.34 |  |
| COc1cc(Oc2ccnc(-c3cnn(C)c3)c2)ccc1NC(=O)c1cnc(C)n(C)c1=O [Compound 53] | 6.87 |  |  |
| CC(C)n1ccnc(C(=O)Nc2ccc(Oc3ccnc(-c4cnn(C)c4)c3)cn2)c1=O [Compound 59] | 6.92 |  |  |
| Cn1cc(-c2cc(Oc3ccc(NC(=O)c4cnc(C5CC5)n(C)c4=O)nc3)ccn2)cn1 [Compound 74] |  | 7.92 |  |
| Cn1cc(-c2cc(Oc3ccc(NC(=O)c4cccn(CC(F)(F)F)c4=O)nc3)ccn2)cn1 [Compound 87] |  | 8.22 |  |
| COc1cc(Oc2ccnc(-c3cnn(C)c3)c2)cnc1NC(=O)c1cccn(C(C)C)c1=O [Compound 92, 1-isopropyl-N-(3-methoxy-5-((2-(1-methyl-1H-pyrazol-4-yl)pyridin-4-yl)oxy)pyridin-2-yl)-2-oxo-1,2-dihydropyridine-3-carboxamide] |  | 6.25 |  |
| Cn1cccc(C(=O)Nc2ccc(Oc3ccnc(-c4cnn(CCO)c4)c3)cn2)c1=O [Compound 94, N-(5-((2-(1-(2-hydroxyethyl)-1H-pyrazol-4-yl)pyridin-4-yl)oxy)pyridin-2-yl)-1-methyl-2-oxo-1,2-dihydropyridine-3-carboxamide] |  | 6.85 |  |
| CCN1CCN(c2cc(Oc3ccc(NC(=O)c4cccn(C(C)C)c4=O)nc3)ccn2)CC1 [Compound 98, N-(5-((2-(4-ethylpiperazin-1-yl)pyridin-4-yl)oxy)pyridin-2-yl)-1-isopropyl-2-oxo-1,2-dihydropyridine-3-carboxamide] | 6.32 |  |  |
| Cc1ncc(C(=O)Nc2ccc(Oc3ccnc(-c4cnn(CCN)c4)c3)cn2)c(=O)n1C [Compound 109, N-(5-((2-(1-(2-aminoethyl)-1H-pyrazol-4-yl)pyridin-4-yl)oxy)pyridin-2-yl)-1,2-dimethyl-6-oxo-1,6-dihydropyrimidine-5-carboxamide] | 6.75 |  |  |
| CNCCn1cc(-c2cc(Oc3ccc(NC(=O)c4cnc(C)n(C)c4=O)nc3)ccn2)cn1 [Compound 110] | 6.95 |  |  |
| Cc1ncc(C(=O)Nc2ccc(Oc3ccnc(-c4nccs4)c3)cn2)c(=O)n1C [Compound 119] | 6.33 |  |  |
| Cc1ncc(C(=O)Nc2ccc(Oc3ccnc(C4=CCCCC4)c3)cn2)c(=O)n1C [Compound 121] | 6.38 |  |  |
| Cc1ccc(-c2cc(Oc3ccc(NC(=O)c4cnc(C)n(C)c4=O)nc3)ccn2)o1 [Compound 122] | 7.26 |  |  |
| Cn1cc(-c2cc(Oc3ccc(NC(=O)c4cnc(O)n(C)c4=O)nc3)ccn2)cn1 [Compound 134, 2-hydroxy-1-methyl-N-(5-((2-(1-methyl-1H-pyrazol-4-yl)pyridin-4-yl)oxy)pyridin-2-yl)-6-oxo-1,6-dihydropyrimidine-5-carboxamide] |  | 6.28 |  |
| Cc1ncc(C(=O)Nc2ccc(Oc3ccnc(-c4cn(C)nc4O)c3)cn2)c(=O)n1C [Compound 135, N-(5-((2-(3-hydroxy-1-methyl-1H-pyrazol-4-yl)pyridin-4-yl)oxy)pyridin-2-yl)-1,2-dimethyl-6-oxo-1,6-dihydropyrimidine-5-carboxamide] | 7.92 | 8.15 |  |
